The record followed here is patent US20100029657A1, “Bridged, Bicyclic Heterocyclic or Spiro Bicyclic Heterocyclic Derivatives of Pyrazolo[1, 5-A]Pyrimidines, Methods for Preparation and Uses Thereof” (Wyeth, priority 2008, published 2010).

Molecules are shown by their SMILES.

This experiment concerns the target T1, Flag/GST-tagged recombinant human B-Raf (Homo sapiens, UniProt P15056).
T1 construct: Flag; GST; made in house; host or cells: Sf9 insect cells (B-Raf); E. coli (MEK1-GST)
Nature of the experiment: B-Raf kinase assay (phosphorylation of GST-MEK1, phospho-MEK1 antibody/Europium detection). In kind it is biochemical. To be noted: B-Raf IC50 Data for compounds of Formula A; read-out: Mean IC50. In outline: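 Active B-Raf (0.2 nM) phosphorylates GST-MEK1 in 20 mM MOPS pH 7.2 buffer with DTT, vanadate and 0.01% Triton X-100. The Mg/ATP cocktail (200 μM ATP, 40 mM MgCl2) is added, then incubation runs 45 min at RT. Product is captured on anti-GST plates and detected by anti-phospho-MEK1 plus Europium-anti-rabbit fluorescence, giving % inhibition per concentration.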

T1 sequence (P15056 whole entry): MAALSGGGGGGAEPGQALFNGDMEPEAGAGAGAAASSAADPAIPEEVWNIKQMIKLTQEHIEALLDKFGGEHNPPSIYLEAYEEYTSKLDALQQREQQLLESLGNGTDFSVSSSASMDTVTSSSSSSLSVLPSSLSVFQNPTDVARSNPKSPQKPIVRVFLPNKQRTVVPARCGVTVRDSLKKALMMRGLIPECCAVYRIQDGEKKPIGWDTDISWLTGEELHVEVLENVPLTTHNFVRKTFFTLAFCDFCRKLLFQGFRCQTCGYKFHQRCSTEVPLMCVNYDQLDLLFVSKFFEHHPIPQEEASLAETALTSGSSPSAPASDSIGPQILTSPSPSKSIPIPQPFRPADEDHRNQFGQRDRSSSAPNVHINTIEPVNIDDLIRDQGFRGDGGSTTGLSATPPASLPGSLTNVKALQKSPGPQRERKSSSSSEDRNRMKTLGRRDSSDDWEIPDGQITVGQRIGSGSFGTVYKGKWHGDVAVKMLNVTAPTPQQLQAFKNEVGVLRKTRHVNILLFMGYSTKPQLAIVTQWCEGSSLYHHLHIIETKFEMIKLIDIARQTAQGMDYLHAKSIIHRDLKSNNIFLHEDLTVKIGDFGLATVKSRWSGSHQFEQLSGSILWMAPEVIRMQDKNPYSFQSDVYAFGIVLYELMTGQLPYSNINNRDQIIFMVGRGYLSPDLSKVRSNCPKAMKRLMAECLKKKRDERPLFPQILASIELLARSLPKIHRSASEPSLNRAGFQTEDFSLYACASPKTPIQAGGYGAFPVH

A word on the IC50: it is the point on the concentration scale where inhibition reaches its midpoint. As to `CN1C[C@@H]2C[C@H]1CN2c1ccc(-c2ccnc3c(-c4cccc(O)c4)c(-c4ccncc4)nn23)c(F)c1` [Example 134, 3-(7-{2-fluoro-4-[(1S,4S)-5-methyl-2,5-diazabicyclo[2.2.1]hept-2-yl]phenyl}-2-pyridin-4-ylpyrazolo[1,5-a]pyrimidin-3-yl)phenol], the IC50 was below 0.3 nM.

As for `Cc1cc(N2C[C@@H]3C[C@H]2CN3)ccc1-c1ccnc2c(-c3ccc(F)c4[nH]ncc34)c(-c3ccncc3)nn12` [Example 135, 7-{4-[(1S,4S)-2,5-diazabicyclo[2.2.1]hept-2-yl]-2-methylphenyl}-3-(7-fluoro-1H-indazol-4-yl)-2-pyridin-4-ylpyrazolo[1,5-a]pyrimidine], the IC50 was below 0.3 nM.

Turning to `Cc1cc(N2C[C@@H]3C[C@H]2CN3C)ccc1-c1ccnc2c(-c3ccc(F)c4[nH]ncc34)c(-c3ccncc3)nn12` [Example 136, 3-(7-fluoro-1H-indazol-4-yl)-7-{2-methyl-4-[(1S,4S)-5-methyl-2,5-diazabicyclo[2.2.1]hept-2-yl]phenyl}-2-pyridin-4-ylpyrazolo[1,5-a]pyrimidine], the IC50 was below 0.3 nM.

Take `Fc1ccc(-c2c(-c3ccncc3)nn3c(C4CC5CCC(C4)N5)ccnc23)c2cn[nH]c12` (centres unmarked) [Example 137, 7-(8-azabicyclo[3.2.1]oct-3-yl)-3-(7-fluoro-1H-indazol-4-yl)-2-pyridin-4-ylpyrazolo[1,5-a]pyrimidine]: the IC50 is 3.8 nM.

As to `N#CCN1C2CCC1CC(c1ccnc3c(-c4ccc(F)c5[nH]ncc45)c(-c4ccncc4)nn13)C2` (centres unmarked) [Example 138, {3-[3-(7-fluoro-1H-indazol-4-yl)-2-pyridin-4-ylpyrazolo[1,5-a]pyrimidin-7-yl]-8-azabicyclo[3.2.1]oct-8-yl}acetonitrile], the IC50 worked out at 0.4 nM.

With `Clc1ccc(-c2c(-c3ccncc3)nn3ccc(-c4ccc(N5C[C@@H]6C[C@H]5CN6)cc4)nc23)c2cn[nH]c12` [Example 139, 3-(7-chloro-1H-indazol-4-yl)-5-{4-[(1S,4S)-2,5-diazabicyclo[2.2.1]hept-2-yl]phenyl}-2-pyridin-4-ylpyrazolo[1,5-a]pyrimidine], the IC50 came to 1.2 nM.

Turning to `CN1C2CCC1CN(c1ccc(-c3ccnc4c(-c5cccc6[nH]ncc56)c(-c5ccncc5)nn34)cn1)C2` [Example 140, 3-(1H-indazol-4-yl)-7-[6-(8-methyl-3,8-diazabicyclo[3.2.1]oct-3-yl)pyridin-3-yl]-2-pyridin-4-ylpyrazolo[1,5-a]pyrimidine], the IC50 was found to be 1.2 nM.

Take `CN1C[C@@H]2C[C@H]1CN2c1ccc(-c2ccnc3c(-c4ccc(Cl)c5[nH]ncc45)c(-c4ccncc4)nn23)cc1` [Example 141, 3-(7-chloro-1H-indazol-4-yl)-7-{4-[(1S,4S)-5-methyl-2,5-diazabicyclo[2.2.1]hept-2-yl]phenyl}-2-pyridin-4-ylpyrazolo[1,5-a]pyrimidine]: the half-inhibitory concentration (IC50) amounted to 2.3 nM.

In the case of `c1cc(-c2c(-c3ccncc3)nn3c(C4CCC5(CC4)OCCO5)ccnc23)c2cn[nH]c2c1` [Example 142, 7-(1,4-dioxaspiro[4.5]dec-8-yl)-3-(1H-indazol-4-yl)-2-pyridin-4-ylpyrazolo[1,5-a]pyrimidine], the IC50 amounted to 2.2 nM.

`CN1C[C@@H]2CC[C@H]1CN2c1ccc(-c2ccnc3c(-c4cccc5[nH]ncc45)c(-c4ccncc4)nn23)cc1` [Example 143, 3-(1H-indazol-4-yl)-7-{4-[(1S,4S)-5-methyl-2,5-diazabicyclo[2.2.2]oct-2-yl]phenyl}-2-pyridin-4-ylpyrazolo[1,5-a]pyrimidine]: the IC50 is 0.7 nM.

With `c1cc(-c2c(-c3ccncc3)nn3c(-c4ccc(N5C[C@@H]6CC[C@H]5CN6)cc4)ccnc23)c2cn[nH]c2c1` [Example 144, 7-{4-[(1S,4S)-2,5-diazabicyclo[2.2.2]oct-2-yl]phenyl}-3-(1H-indazol-4-yl)-2-pyridin-4-ylpyrazolo[1,5-a]pyrimidine], the IC50 worked out at 0.6 nM.

For `Fc1cc(F)c(-c2ccnc3c(-c4cccc5[nH]ncc45)c(-c4ccncc4)nn23)c(N2C[C@@H]3C[C@H]2CN3)c1` [Example 145, 7-{2-[(1S,4S)-2,5-diazabicyclo[2.2.1]hept-2-yl]-4,6-difluorophenyl}-3-(1H-indazol-4-yl)-2-pyridin-4-ylpyrazolo[1,5-a]pyrimidine], the IC50 was found to be 74.4 nM.

In the case of `CN(C)c1cc(N2C[C@@H]3C[C@H]2CN3)ccc1-c1ccnc2c(-c3cccc4[nH]ncc34)c(-c3ccncc3)nn12` [Example 146, 5-[(1S,4S)-2,5-diazabicyclo[2.2.1]hept-2-yl]-2-[3-(1H-indazol-4-yl)-2-pyridin-4-ylpyrazolo[1,5-a]pyrimidin-7-yl]-N,N-dimethylaniline], the IC50 was 6.3 nM.

With `CN1C[C@@H]2C[C@H]1CN2c1cc(F)cc(F)c1-c1ccnc2c(-c3cccc4[nH]ncc34)c(-c3ccncc3)nn12` [Example 147, 7-{2,4-difluoro-6-[(1S,4S)-5-methyl-2,5-diazabicyclo[2.2.1]hept-2-yl]phenyl}-3-(1H-indazol-4-yl)-2-pyridin-4-ylpyrazolo[1,5-a]pyrimidine], the IC50 is above 100 nM.

With `CN(C)c1cc(N2C[C@@H]3C[C@H]2CN3C)ccc1-c1ccnc2c(-c3cccc4[nH]ncc34)c(-c3ccncc3)nn12` [Example 148, 2-[3-(1H-indazol-4-yl)-2-pyridin-4-ylpyrazolo[1,5-a]pyrimidin-7-yl]-N,N-dimethyl-5-[(1S,4S)-5-methyl-2,5-diazabicyclo[2.2.1]hept-2-yl]aniline], the IC50 amounted to 7.3 nM.

As to `c1cc(-c2c(-c3ccncc3)nn3c2nccc3[C@H]2CC[C@@H](N3C[C@@H]4C[C@H]3CN4)CC2)c2cn[nH]c2c1` [Example 149, 7-{cis-4-[(1S,4S)-2,5-diazabicyclo[2.2.1]hept-2-yl]cyclohexyl}-3-(1H-indazol-4-yl)-2-pyridin-4-ylpyrazolo[1,5-a]pyrimidine], the IC50 was 3.2 nM.

`c1cc(-c2c(-c3ccncc3)nn3c2nccc3[C@H]2CC[C@@H](N3C[C@@H]4C[C@H]3CO4)CC2)c2cn[nH]c2c1` [Example 154, 3-(1H-indazol-4-yl)-7-{cis-4-[(1S,4S)-2-oxa-5-azabicyclo[2.2.1]hept-5-yl]cyclohexyl}-2-pyridin-4-ylpyrazolo[1,5-a]pyrimidine]: the concentration for half-maximal inhibition (IC50) was 11.4 nM.

For `c1cc(-c2c(-c3ccncc3)nn3c2nccc3[C@H]2CC[C@H](N3C[C@@H]4C[C@H]3CO4)CC2)c2cn[nH]c2c1` [Example 155, 3-(1H-indazol-4-yl)-7-{trans-4-[(1S,4S)-2-oxa-5-azabicyclo[2.2.1]hept-5-yl]cyclohexyl}-2-pyridin-4-ylpyrazolo[1,5-a]pyrimidine], the IC50 came to 3.5 nM.

With `c1cc(-c2c(-c3ccncc3)nn3c2nccc3[C@H]2CC[C@H](N3C[C@@H]4C[C@H]3CN4)CC2)c2cn[nH]c2c1` [Example 156, 7-{trans-4-[(1S,4S)-2,5-diazabicyclo[2.2.1]hept-2-yl]cyclohexyl}-3-(1H-indazol-4-yl)-2-pyridin-4-ylpyrazolo[1,5-a]pyrimidine], the IC50 was determined as 0.6 nM.

Regarding `FC(F)(F)c1cc(-c2ccnc3c(-c4cccc5[nH]ncc45)c(-c4ccncc4)nn23)ccc1N1C[C@@H]2C[C@H]1CN2` [Example 157, 7-{4-[(1S,4S)-2,5-diazabicyclo[2.2.1]hept-2-yl]-3-(trifluoromethyl)phenyl}-3-(1H-indazol-4-yl)-2-pyridin-4-ylpyrazolo[1,5-a]pyrimidine], the IC50 was determined as 1.2 nM.

As to `c1cc(-c2c(-c3ccncc3)nn3c(-c4ccc(N5C[C@@H]6C[C@H]5CN6)c5ccccc45)ccnc23)c2cn[nH]c2c1` [Example 158, 7-{4-[(1S,4S)-2,5-diazabicyclo[2.2.1]hept-2-yl]-1-naphthyl}-3-(1H-indazol-4-yl)-2-pyridin-4-ylpyrazolo[1,5-a]pyrimidine], the half-inhibitory concentration (IC50) was found to be 20.9 nM.

Regarding `CN1C[C@@H]2C[C@H]1CN2c1ccc(-c2ccnc3c(-c4cccc5[nH]ncc45)c(-c4ccncc4)nn23)cc1C(F)(F)F` [Example 159, 3-(1H-indazol-4-yl)-7-{4-[(1S,4S)-5-methyl-2,5-diazabicyclo[2.2.1]hept-2-yl]-3-(trifluoromethyl)phenyl}-2-pyridin-4-ylpyrazolo[1,5-a]pyrimidine], the IC50 came out at 2 nM.

In the case of `CN1C[C@@H]2C[C@H]1CN2c1ccc(-c2ccnc3c(-c4cccc5[nH]ncc45)c(-c4ccncc4)nn23)c2ccccc12` [Example 160, 3-(1H-indazol-4-yl)-7-{4-[(1S,4S)-5-methyl-2,5-diazabicyclo[2.2.1]hept-2-yl]-1-naphthyl}-2-pyridin-4-ylpyrazolo[1,5-a]pyrimidine], the IC50 is 25.3 nM.

On to `Fc1cc(-c2ccnc3c(-c4cccc5[nH]ncc45)c(-c4ccncc4)nn23)cc(F)c1N1C[C@@H]2C[C@H]1CN2` [Example 161, 7-{4-[(1S,4S)-2,5-diazabicyclo[2.2.1]hept-2-yl]-3,5-difluorophenyl}-3-(1H-indazol-4-yl)-2-pyridin-4-ylpyrazolo[1,5-a]pyrimidine], for which the IC50 was 2.7 nM.

Regarding `Fc1c(-c2ccnc3c(-c4cccc5[nH]ncc45)c(-c4ccncc4)nn23)ccc(N2C[C@@H]3C[C@H]2CN3)c1F` [Example 162, 7-{4-[(1S,4S)-2,5-diazabicyclo[2.2.1]hept-2-yl]-2,3-difluorophenyl}-3-(1H-indazol-4-yl)-2-pyridin-4-ylpyrazolo[1,5-a]pyrimidine], the half-inhibitory concentration (IC50) is 0.5 nM.

Regarding `Fc1cc(N2C[C@@H]3C[C@H]2CN3)c(F)cc1-c1ccnc2c(-c3cccc4[nH]ncc34)c(-c3ccncc3)nn12` [Example 163, 7-{4-[(1S,4S)-2,5-diazabicyclo[2.2.1]hept-2-yl]-2,5-difluorophenyl}-3-(1H-indazol-4-yl)-2-pyridin-4-ylpyrazolo[1,5-a]pyrimidine], the half-inhibitory concentration (IC50) is below 0.3 nM.
